#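 Each compound was tested at five concentrations against cells in 96-well plates for 48 hours. At the GI50, growth is halved. At the TGI there is no net growth.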
# Experiments:
# Experiment in all cases: NCI tumour cell line growth inhibition, 48 h
# [1] = test system: RXF 393 renal
# [2] = test system: KM12 colon
# [3] = test system: SK-MEL-5 melanoma
# [4] = test system: SN12C renal
# [5] = test system: MALME-3M melanoma
# [6] = test system: NCI-H522 lung
# [7] = test system: SK-MEL-2 melanoma
# [8] = test system: RPMI-8226 leukemia
# [9] = test system: SR leukemia
# [10] = test system: OVCAR-3 ovarian
# [11] = test system: HOP-62 NSCLC
# [12] = test system: U251 CNS
# [13] = test system: NCI/ADR-RES ovarian
# [14] = test system: NCI-H23 lung
# [15] = test system: K-562 leukemia
# [16] = test system: LOX IMVI melanoma
# [17] = test system: EKVX NSCLC
# [18] = test system: M14 melanoma
# [19] = test system: NCI-H226 lung
# [20] = test system: HT29 colon
# [21] = test system: COLO 205 colon
# [22] = test system: A549 NSCLC
# [23] = test system: OVCAR-8 ovarian
# [24] = test system: HL-60(TB) leukemia
# [25] = test system: HCC-2998 colon
# [26] = test system: MOLT-4 leukemia
# [27] = test system: MDA-MB-231 breast
# [28] = test system: MDA-MB-435
# [29] = test system: SF-539 CNS
# [30] = test system: A498 renal
# [31] = test system: BT-549 breast
# [32] = test system: SF-268 CNS
# [33] = test system: PC-3 prostate
# [34] = test system: 786-0 renal
# [35] = test system: TK-10 renal
# [36] = test system: CAKI-1 renal
# [37] = test system: SK-MEL-28 melanoma
# [38] = test system: IGROV1 ovarian
# [39] = test system: CCRF-CEM leukemia
# [40] = test system: MCF7 breast
# [41] = test system: OVCAR-5 ovarian
# [42] = test system: HCT-116 colon
# [43] = test system: HCT-15 colon
# [44] = test system: UO-31 renal
# [45] = test system: DU-145 prostate
# [46] = test system: UACC-257 melanoma
# [47] = test system: ACHN renal
# [48] = test system: UACC-62 melanoma
# [49] = test system: HS 578T breast
# [50] = test system: T-47D breast
# [51] = test system: SNB-75 CNS
# [52] = test system: SW-620 colon
# [53] = test system: SNB-19 CNS
# [54] = test system: SK-OV-3 ovarian
# [55] = test system: HOP-92 NSCLC
# [56] = test system: NCI-H460 lung
smiles,measurement,setting,value
CNC(=O)Oc1cc(C(C)C)ccc1Sc1ccc(C(C)C)cc1OC(=O)NC,GI50,[1],2.52 µM
same,TGI,[1],9.34 µM
same,GI50,[2],5.78 µM
same,TGI,[2],18.9 µM
same,GI50,[3],2.5 µM
same,TGI,[3],11.8 µM
same,GI50,[4],7 µM
same,TGI,[4],24 µM
same,GI50,[5],4.75 µM
same,TGI,[5],20.5 µM
same,GI50,[6],4.98 µM
same,TGI,[6],19.1 µM
same,GI50,[7],4.21 µM
same,TGI,[7],17.3 µM
same,GI50,[8],1.83 µM
same,TGI,[8],7.48 µM
same,GI50,[9],2.2 µM
same,TGI,[9],10 µM
same,GI50,[10],4.39 µM
same,TGI,[10],14.7 µM
same,GI50,[11],9.56 µM
same,TGI,[11],22.6 µM
same,GI50,[12],3.5 µM
same,TGI,[12],15.6 µM
same,GI50,[13],3.9 µM
same,TGI,[13],18.6 µM
same,GI50,[14],6.5 µM
same,TGI,[14],23.6 µM
same,GI50,[15],1.27 µM
same,TGI,[15],14.5 µM
same,GI50,[16],6.09 µM
same,TGI,[16],27.6 µM
same,GI50,[17],1.59 µM
same,TGI,[17],7.14 µM
same,GI50,[18],3.61 µM
same,TGI,[18],16.3 µM
same,GI50,[19],10 µM
same,TGI,[19],25.5 µM
same,GI50,[20],12.6 µM
same,TGI,[20],27.4 µM
same,GI50,[21],14.4 µM
same,TGI,[21],28.8 µM
same,GI50,[22],5.22 µM
same,TGI,[22],18.4 µM
same,GI50,[23],5.42 µM
same,TGI,[23],27.9 µM
same,GI50,[24],3.06 µM
same,TGI,[24],12.7 µM
same,GI50,[25],12.2 µM
same,TGI,[25],27.7 µM
same,GI50,[26],2.96 µM
same,TGI,[26],20.1 µM
same,GI50,[27],5.48 µM
same,TGI,[27],19.4 µM
same,GI50,[28],2.29 µM
same,TGI,[28],10 µM
same,GI50,[29],4.07 µM
same,TGI,[29],17.1 µM
same,GI50,[30],12 µM
same,TGI,[30],25 µM
same,GI50,[31],3.44 µM
same,TGI,[31],12 µM
same,GI50,[32],5.36 µM
same,TGI,[32],19.4 µM
same,GI50,[33],2.97 µM
same,TGI,[33],16.9 µM
same,GI50,[34],11.5 µM
same,TGI,[34],28.7 µM
same,GI50,[35],14 µM
same,TGI,[35],30.3 µM
same,GI50,[36],3.34 µM
same,TGI,[36],17.1 µM
same,GI50,[37],4.99 µM
same,TGI,[37],17.9 µM
same,GI50,[38],4.98 µM
same,TGI,[38],23.8 µM
same,GI50,[39],3.41 µM
same,TGI,[39],46.3 µM
same,GI50,[40],5.49 µM
same,TGI,[40],18.2 µM
same,GI50,[41],11.4 µM
same,TGI,[41],25.7 µM
same,GI50,[42],2.68 µM
same,TGI,[42],15.2 µM
same,GI50,[43],1.95 µM
same,TGI,[43],16.1 µM
same,GI50,[44],3.28 µM
same,TGI,[44],16.6 µM
same,GI50,[45],4.32 µM
same,TGI,[45],14.3 µM
same,GI50,[46],5.81 µM
same,TGI,[46],20.3 µM
same,GI50,[47],6.92 µM
same,TGI,[47],24.4 µM
same,GI50,[48],4.24 µM
same,TGI,[48],16.5 µM
same,GI50,[49],4.7 µM
same,TGI,[49],35.6 µM
same,GI50,[50],10.2 µM
same,TGI,[50],25.9 µM
same,GI50,[51],2.88 µM
same,TGI,[51],12.2 µM
same,GI50,[52],5.01 µM
same,TGI,[52],20.1 µM
same,GI50,[53],9.57 µM
same,TGI,[53],24.4 µM
same,GI50,[54],10.5 µM
same,TGI,[54],23.7 µM
same,GI50,[55],2.63 µM
same,TGI,[55],9.85 µM
same,GI50,[56],2.44 µM
same,TGI,[56],11 µM

# From PubChem BioAssay (NCI)
